Assays:
Test in all cases: relative viability (nuclei count vs DMSO), 5 days (fraction); higher = more cells survive
201T = tested on: 201T
Procedure, shortened: (§1)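 Relative viability is defined as nuclei in treated wells over nuclei in vehicle wells. Duplicate plates were run and medians reported. Lung cancer cell lines in 1536-well plates were dosed by pin tool one day after seeding, with one drug or with a fixed anchor-drug dose plus five library-drug doses (not always all listed) in √10 steps, and nuclei were counted after 5 days.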

COR-L 105 = tested on: COR-L 105
Procedure, shortened: as §1

ChaGo-K-1 = tested on: ChaGo-K-1
Procedure, shortened: as §1

EKVX = tested on: EKVX
Procedure, shortened: as §1

H3255 = tested on: H3255
Procedure, shortened: as §1

HARA = tested on: HARA
Procedure, shortened: as §1

HCC-827 = tested on: HCC-827
Procedure, shortened: as §1

HOP-62 = tested on: HOP-62
Procedure, shortened: as §1

LCLC-103H = tested on: LCLC-103H
Procedure, shortened: as §1

LOU-NH91 = tested on: LOU-NH91
Procedure, shortened: as §1

NCI-H1975 = tested on: NCI-H1975
Procedure, shortened: as §1

NCI-H2126 = tested on: NCI-H2126
Procedure, shortened: as §1

NCI-H2228 = tested on: NCI-H2228
Procedure, shortened: as §1

NCI-H23 = tested on: NCI-H23
Procedure, shortened: as §1

NCI-H2405 = tested on: NCI-H2405
Procedure, shortened: as §1

NCI-H3122 = tested on: NCI-H3122
Procedure, shortened: as §1

NCI-H650 = tested on: NCI-H650
Procedure, shortened: as §1

NCI-H661 = tested on: NCI-H661
Procedure, shortened: as §1

NCI-H727 = tested on: NCI-H727
Procedure, shortened: as §1

PC-3 [JPC-3] = tested on: PC-3 [JPC-3]
Procedure, shortened: as §1

SK-LU-1 = tested on: SK-LU-1
Procedure, shortened: as §1

SW 900 = tested on: SW 900
Procedure, shortened: as §1

SMILES: Cc1cn(-c2cc(NC(=O)c3ccc(C)c(Nc4nccc(-c5cccnc5)n4)c3)cc(C(F)(F)F)c2)cn1 [Nilotinib] + CC(=O)c1c(C)c2cnc(Nc3ccc(N4CCNCC4)cn3)nc2n(C2CCCC2)c1=O [Palbociclib] (partner 0.5 µM)
- relative viability (201T; first compound 0.001 µM): 0.326
- relative viability (201T; first compound 0.003162 µM): 0.371
- relative viability (201T; first compound 0.01 µM): 0.363
- relative viability (201T; first compound 0.03162 µM): 0.363
- relative viability (201T; first compound 0.1 µM): 0.351
- relative viability (COR-L 105; first compound 0.001 µM): 0.396
- relative viability (COR-L 105; first compound 0.003162 µM): 0.413
- relative viability (COR-L 105; first compound 0.01 µM): 0.28
- relative viability (COR-L 105; first compound 0.03162 µM): 0.399
- relative viability (COR-L 105; first compound 0.1 µM): 0.391
- relative viability (ChaGo-K-1; first compound 0.001 µM): 0.898
- relative viability (ChaGo-K-1; first compound 0.003162 µM): 1.25
- relative viability (ChaGo-K-1; first compound 0.01 µM): 1.06
- relative viability (ChaGo-K-1; first compound 0.03162 µM): 0.873
- relative viability (ChaGo-K-1; first compound 0.1 µM): 0.894
- relative viability (EKVX; first compound 0.001 µM): 0.372
- relative viability (EKVX; first compound 0.003162 µM): 0.492
- relative viability (EKVX; first compound 0.01 µM): 0.479
- relative viability (EKVX; first compound 0.03162 µM): 0.379
- relative viability (EKVX; first compound 0.1 µM): 0.62
- relative viability (H3255; first compound 0.001 µM): 0.317
- relative viability (H3255; first compound 0.003162 µM): 0.286
- relative viability (H3255; first compound 0.01 µM): 0.313
- relative viability (H3255; first compound 0.03162 µM): 0.308
- relative viability (H3255; first compound 0.1 µM): 0.287
- relative viability (HARA; first compound 0.001 µM): 0.287
- relative viability (HARA; first compound 0.003162 µM): 0.219
- relative viability (HARA; first compound 0.01 µM): 0.246
- relative viability (HARA; first compound 0.03162 µM): 0.251
- relative viability (HARA; first compound 0.1 µM): 0.225
- relative viability (HCC-827; first compound 0.001 µM): 0.56
- relative viability (HCC-827; first compound 0.003162 µM): 0.451
- relative viability (HCC-827; first compound 0.03162 µM): 0.435
- relative viability (HCC-827; first compound 0.1 µM): 0.469
- relative viability (HOP-62; first compound 0.003162 µM): 0.425
- relative viability (HOP-62; first compound 0.01 µM): 0.439
- relative viability (LCLC-103H; first compound 0.001 µM): 0.425
- relative viability (LCLC-103H; first compound 0.003162 µM): 0.403
- relative viability (LCLC-103H; first compound 0.01 µM): 0.46
- relative viability (LCLC-103H; first compound 0.03162 µM): 0.489
- relative viability (LCLC-103H; first compound 0.1 µM): 0.44
- relative viability (LOU-NH91; first compound 0.001 µM): 0.51
- relative viability (LOU-NH91; first compound 0.003162 µM): 0.543
- relative viability (LOU-NH91; first compound 0.01 µM): 0.48
- relative viability (LOU-NH91; first compound 0.03162 µM): 0.535
- relative viability (LOU-NH91; first compound 0.1 µM): 0.586
- relative viability (NCI-H1975; first compound 0.001 µM): 0.498
- relative viability (NCI-H1975; first compound 0.003162 µM): 0.608
- relative viability (NCI-H1975; first compound 0.01 µM): 0.653
- relative viability (NCI-H1975; first compound 0.03162 µM): 0.345
- relative viability (NCI-H1975; first compound 0.1 µM): 0.226
- relative viability (NCI-H2126; first compound 0.001 µM): 0.337
- relative viability (NCI-H2126; first compound 0.003162 µM): 0.333
- relative viability (NCI-H2126; first compound 0.01 µM): 0.382
- relative viability (NCI-H2126; first compound 0.03162 µM): 0.321
- relative viability (NCI-H2126; first compound 0.1 µM): 0.346
- relative viability (NCI-H2228; first compound 0.001 µM): 0.677
- relative viability (NCI-H2228; first compound 0.003162 µM): 0.924
- relative viability (NCI-H2228; first compound 0.01 µM): 0.935
- relative viability (NCI-H2228; first compound 0.03162 µM): 0.395
- relative viability (NCI-H2228; first compound 0.1 µM): 0.406
- relative viability (NCI-H23; first compound 0.001 µM): 0.494
- relative viability (NCI-H23; first compound 0.003162 µM): 0.52
- relative viability (NCI-H23; first compound 0.01 µM): 0.512
- relative viability (NCI-H23; first compound 0.03162 µM): 0.443
- relative viability (NCI-H23; first compound 0.1 µM): 0.404
- relative viability (NCI-H2405; first compound 0.001 µM): 0.493
- relative viability (NCI-H2405; first compound 0.003162 µM): 0.485
- relative viability (NCI-H2405; first compound 0.01 µM): 0.529
- relative viability (NCI-H2405; first compound 0.03162 µM): 0.467
- relative viability (NCI-H2405; first compound 0.1 µM): 0.404
- relative viability (NCI-H3122; first compound 0.001 µM): 0.0877
- relative viability (NCI-H3122; first compound 0.003162 µM): 0.191
- relative viability (NCI-H3122; first compound 0.01 µM): 0.243
- relative viability (NCI-H3122; first compound 0.03162 µM): 0.198
- relative viability (NCI-H3122; first compound 0.1 µM): 0.175
- relative viability (NCI-H650; first compound 0.001 µM): 0.335
- relative viability (NCI-H650; first compound 0.01 µM): 0.336
- relative viability (NCI-H650; first compound 0.03162 µM): 0.305
- relative viability (NCI-H650; first compound 0.1 µM): 0.333
- relative viability (NCI-H661; first compound 0.001 µM): 0.438
- relative viability (NCI-H661; first compound 0.003162 µM): 0.396
- relative viability (NCI-H661; first compound 0.01 µM): 0.404
- relative viability (NCI-H661; first compound 0.03162 µM): 0.444
- relative viability (NCI-H661; first compound 0.1 µM): 0.361
- relative viability (NCI-H727; first compound 0.001 µM): 0.667
- relative viability (NCI-H727; first compound 0.003162 µM): 0.69
- relative viability (NCI-H727; first compound 0.01 µM): 0.71
- relative viability (NCI-H727; first compound 0.03162 µM): 0.593
- relative viability (NCI-H727; first compound 0.1 µM): 0.633
- relative viability (PC-3 [JPC-3]; first compound 0.001 µM): 0.526
- relative viability (PC-3 [JPC-3]; first compound 0.01 µM): 0.542
- relative viability (PC-3 [JPC-3]; first compound 0.03162 µM): 0.566
- relative viability (PC-3 [JPC-3]; first compound 0.1 µM): 0.518
- relative viability (SK-LU-1; first compound 0.001 µM): 0.355
- relative viability (SK-LU-1; first compound 0.003162 µM): 0.334
- relative viability (SK-LU-1; first compound 0.01 µM): 0.405
- relative viability (SK-LU-1; first compound 0.03162 µM): 0.311
- relative viability (SK-LU-1; first compound 0.1 µM): 0.335
- relative viability (SW 900; first compound 0.003162 µM): 0.47
- relative viability (SW 900; first compound 0.01 µM): 0.524
- relative viability (SW 900; first compound 0.03162 µM): 0.455
- relative viability (SW 900; first compound 0.1 µM): 0.476
